The source of these data is PMC5684323 (2017).

Test [1] concerns ESE2 RNA (NMR) (RNA, single strand) AAAAAGAAGGAAGG
Kind of test: 1H NMR titration. The conditions noted are these: 50 mM NaCl; 10 mM MES pH 5.5, 10% D2O, 310 K.

The subject of test [2] is ESE2 (SPR) (RNA, single strand) AAAAAGAAGGAAGG
Description: SPR (Biacore), immobilised RNA. The note with it: 150 mM NaCl, no Mg2+ (35 mM EDTA); 10 mM HEPES pH 7.4, 0.05% P20, 0.1% DMSO, 25 °C; 10 µM tested. For orientation: Surface plasmon resonance follows binding to a sensor surface in real time, without labels.

Test [3] relates to STRN3 "ESE" (RNA, single strand) AAGAAGGAACGAAAGGGGAAGAAAGGGG
Description: SPR (Biacore), immobilised RNA. The conditions noted are these: 150 mM NaCl, no Mg2+ (35 mM EDTA); 10 mM HEPES pH 7.4, 0.05% P20, 0.1% DMSO, 25 °C; 10 µM tested.

In test [4] the test system is Exon 7 (RNA, mRNA element) UACAGGGUUUUAGACAAAAUCAAAAAGAAGGAAGGUGCUCACAUUCCUUAAAUUAAGGAGUAAG
Description: SPR (Biacore), immobilised RNA. The note with it: 150 mM NaCl, no Mg2+ (35 mM EDTA); 10 mM HEPES pH 7.4, 0.05% P20, 0.1% DMSO, 25 °C; 10 µM tested.

Molecules are shown by their SMILES.

On to `Cc1cn2cc(-c3cc(=O)n4cc(N5CCN(C(=O)CCN)CC5)ccc4n3)cc(F)c2n1`, for which the binding result in test [1] is recorded as “yes”; in test [2] it was “weak”; in test [3] it was “weak”.

Regarding `Cc1cn2cc(-c3cc(=O)n4cc(N5CCN(C)CC5)ccc4n3)cc(F)c2n1`, the binding result in test [1], in test [2], in test [3] and in test [4] was “yes” each time.
